The test has as its target human TLR9 (hTLR9) (Homo sapiens (Human), UniProt Q9NR96). Put plainly: TLR9 antagonist assay in HEK-Blue-hTLR9 cells (NF-kB/AP-1 SEAP reporter). The format is cell-based. The following applies: hTLR9 agonist (such as ODN 2006, 1 uM), SEAP readout at 620 nm, read-out: hTLR9 antagonism IC50. From the text:
TLR9 Antagonist Assay HEK-Blue™-hTLR9 cells were obtained from InvivoGen Inc. and used to determine test compound antagonism of human TLR9 (hTLR9) driven responses. HEK-Blue™-hTLR9 cells are designed for studying the stimulation of human TLR9 by monitoring the activation of NF-kB. As described by the manufacturer, “HEK-Blue™-hTLR9 cells were obtained by co-transfection of the hTLR9 gene and an optimized secreted embryonic alkaline phosphatase (SEAP) reporter gene into HEK293 cells. The SEAP reporter gene is placed under the control of the IFN-b minimal promoter fused to five NF-kB and AP-1 binding sites. Stimulation with a TLR9 ligand activates NF-kB and AP-1 which induces the production of SEAP. Levels of SEAP can be easily determined with QUANTI-Blue™ a detection medium that turns purple/blue in the presence of alkaline phosphatase”. TLR9 Antagonism Assay […] Day 2 […] Day 3 […] Calculation of IC50 The concentration dependent inhibition of hTLR9 dependent SEAP production was expressed as the concentration of compound which produced half the maximal level of SEAP induced by the hTLR agonist alone.

Chain of human TLR9 (hTLR9) (Q9NR96 26-1032): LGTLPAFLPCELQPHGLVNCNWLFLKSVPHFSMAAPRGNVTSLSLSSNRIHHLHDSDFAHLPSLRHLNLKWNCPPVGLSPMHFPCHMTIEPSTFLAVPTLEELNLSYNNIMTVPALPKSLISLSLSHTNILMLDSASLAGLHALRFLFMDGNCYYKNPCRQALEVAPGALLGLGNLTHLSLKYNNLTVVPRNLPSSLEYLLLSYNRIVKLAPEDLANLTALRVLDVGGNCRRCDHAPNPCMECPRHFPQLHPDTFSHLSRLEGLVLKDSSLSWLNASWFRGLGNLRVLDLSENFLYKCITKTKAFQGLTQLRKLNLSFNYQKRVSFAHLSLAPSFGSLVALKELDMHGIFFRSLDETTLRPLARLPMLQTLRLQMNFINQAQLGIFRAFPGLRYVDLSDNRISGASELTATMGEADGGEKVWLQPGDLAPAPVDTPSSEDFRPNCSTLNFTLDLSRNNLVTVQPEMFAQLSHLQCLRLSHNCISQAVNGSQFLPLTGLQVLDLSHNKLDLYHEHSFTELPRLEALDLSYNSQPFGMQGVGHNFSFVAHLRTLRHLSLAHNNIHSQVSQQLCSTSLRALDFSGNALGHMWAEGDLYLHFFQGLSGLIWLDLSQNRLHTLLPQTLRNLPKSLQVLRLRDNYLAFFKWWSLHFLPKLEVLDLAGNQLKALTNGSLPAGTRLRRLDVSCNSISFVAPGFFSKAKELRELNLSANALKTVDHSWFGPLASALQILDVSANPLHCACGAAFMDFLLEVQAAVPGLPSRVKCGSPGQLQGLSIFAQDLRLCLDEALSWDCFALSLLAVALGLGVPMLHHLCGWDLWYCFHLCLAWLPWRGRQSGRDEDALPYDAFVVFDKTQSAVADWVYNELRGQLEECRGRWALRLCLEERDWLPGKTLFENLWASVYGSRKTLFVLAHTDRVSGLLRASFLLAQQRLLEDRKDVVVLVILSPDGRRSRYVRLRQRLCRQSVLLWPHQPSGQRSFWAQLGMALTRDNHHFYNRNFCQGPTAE

One may read the IC50 as the concentration that inhibits the measured activity by half. With `c1ccc(-c2nc(NCCN3CCOCC3)c3nc(NCCN4CCOCC4)c(N4CCCC4)nc3n2)cc1` [Example 66], the IC50 amounted to 181 nM.

For the origin of these results see US9359361B2, “Immune system modulators” (JANUS BIOTHERAPEUTICS, INC., priority 2011, dated 2016).
